This is an account of results in patent US8901315B2, “Thienopyrazole derivative having PDE7 inhibitory activity” (Daiichi Sankyo Company, Limited, priority 2004, dated 2014).

Where a name gives a salt, the structure may show the parent alone. Where only a bound is given, the exact number is not on record here.

Assay [1] deals with PDE 7 (phosphodiesterase VII) (Homo sapiens (Human), UniProt Q13946). The assay can be described thus: PDE 7 inhibiting effect (3H-cAMP hydrolysis, PDE 7 active fraction from MOLT-4 cells). Type of assay: biochemical. The conditions noted are these: PDE 7 fraction from MOLT-4 cells, 0.064 μM cAMP, 10 μM rolipram, 2 hours at 25° C.; read-out: PDE7 IC50. The method, boiled down:
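³H-cAMP hydrolysis by a PDE7-active fraction was followed, and the reaction was worked up with a Sephadex-QAE suspension (10 mM HEPES-Na, pH 7.0). Enzyme came from MOLT-4 cell soluble extract (pH 7.5 Tris buffer, 100,000×G supernatant), fractionated by HiTrap Q anion exchange with a 0–0.8 M NaCl gradient.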

For assay [2], the target named is PDE 4 (phosphodiesterase IV). The assay can be described thus: PDE 4 inhibiting effect (3H-cAMP hydrolysis, PDE 4 active fraction from Balb/c mouse liver). Type of assay: biochemical. The settings on record: PDE 4 fraction from Balb/c mice liver, 0.064 μM cAMP, 2 hours at 25° C.; read-out: PDE4 IC50. The essentials:
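Activity was measured as 3H-cAMP hydrolysis, with Sephadex-QAE added after the reaction. The enzyme was a PDE4-active fraction from 12-week male Balb/c mouse liver, taken from the ultracentrifuged soluble fraction by DEAE sepharose chromatography (0.05-1 M sodium acetate gradient, pH 6.5 buffer).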

PDE 7 (phosphodiesterase VII), sequence (Q13946 whole entry): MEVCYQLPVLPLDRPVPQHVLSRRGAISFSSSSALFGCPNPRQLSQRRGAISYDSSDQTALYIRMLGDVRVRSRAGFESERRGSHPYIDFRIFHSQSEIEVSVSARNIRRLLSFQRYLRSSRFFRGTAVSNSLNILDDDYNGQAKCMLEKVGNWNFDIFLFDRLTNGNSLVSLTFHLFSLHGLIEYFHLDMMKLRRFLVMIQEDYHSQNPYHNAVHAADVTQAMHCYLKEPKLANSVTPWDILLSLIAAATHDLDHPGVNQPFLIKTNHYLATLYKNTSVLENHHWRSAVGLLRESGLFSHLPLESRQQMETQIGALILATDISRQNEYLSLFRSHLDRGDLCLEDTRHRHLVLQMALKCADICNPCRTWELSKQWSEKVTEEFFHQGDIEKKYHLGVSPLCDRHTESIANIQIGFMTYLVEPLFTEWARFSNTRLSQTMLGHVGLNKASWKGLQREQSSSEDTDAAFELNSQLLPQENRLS

In the case of `Cc1nn(C2CCCCC2)c2sc(C(=O)Nc3ccc(C(=O)N4CCC(O)CC4)nc3)cc12` [Example 378, 1-Cyclohexyl-N-{6-[(4-hydroxy-1-piperidinyl)carbonyl]-3-pyridinyl}-3-methyl-1H-thieno[2,3-c]pyrazole-5-carboxamide], the IC50 worked out at 44 nM in assay [1] and 2500 nM in assay [2].
For `Cc1nn(C2CCCCC2)c2sc(C(=O)N[C@H]3CC[C@H](C(=O)N(C)C)CC3)cc12` [Example 208, 1-Cyclohexyl-N-{4-[(dimethylamino)carbonyl]cyclohexyl}-3-methyl-1H-thieno[2,3-c]pyrazole-5-carboxamide], the IC50 in assay [1] amounted to 25 nM; in assay [2] it was 3800 nM.
With `CCNC(=O)c1ccc(NC(=O)c2cc3c(C)nn(C4CCCCC4)c3s2)cc1` [Example 28, 1-Cyclohexyl-N-{4-[(ethylamino)carbonyl]phenyl}-3-methyl-1H-thieno[2,3-c]pyrazole-5-carboxamide], the IC50 in assay [1] turned out to be 50 nM; in assay [2] it was 30000 nM.
Taken in the same sequence, the figures for `Cc1nn(C2CCCCC2)c2sc(C(=O)Nc3ccc(CCN(C)C)cc3)cc12` [Example 200, 1-Cyclohexyl-N-{4-[(dimethylamino)ethyl]phenyl}-3-methyl-1H-thieno[2,3-c]pyrazole-5-carboxamide] were 16 nM and 1900 nM.
Take `CNS(=O)(=O)c1cccc(NC(=O)c2cc3c(C)nn(C4CCCCC4)c3s2)c1` [Example 111, 1-Cyclohexyl-3-methyl-N-{3-[(methylamino)sulfonyl]phenyl}-1H-thieno[2,3-c]pyrazole-5-carboxamide]: the IC50 is 10 nM in assay [1] and > 30000 nM in assay [2].
For `Cc1nn(C2CCCCC2)c2sc(C(=O)Nc3ccc(CN4CCC(O)CC4)nc3)cc12` [Example 413, 1-Cyclohexyl-N-{6-[(4-hydroxy-1-piperidinyl)methyl]-3-pyridinyl}-3-methyl-1H-thieno[2,3-c]pyrazole-5-carboxamide] the same measures were 30 nM and 2500 nM.
Taken in the same sequence, the figures for `COCC(=O)Nc1ccc(NC(=O)c2cc3c(C)nn(C4CCCCC4)c3s2)cc1` [Example 101, 1-Cyclohexyl-N-{4-[(methoxyacetyl)amino]phenyl}-3-methyl-1H-thieno[2,3-c]pyrazole-5-carboxamide] were 30 nM and 1300 nM.
Taken in the same sequence, the figures for `CC(=O)N1CCN([C@H]2CC[C@H](NC(=O)c3cc4c(C)nn(C5CCOCC5)c4s3)CC2)CC1` [Example 395, N-[trans-4-(4-Acetyl-1-piperazinyl)cyclohexyl]-3-methyl-1-tetrahydro-2H-pyran-4-yl-1H-thieno[2,3-c]pyrazole-5-carboxamide] were 19 nM and 1400 nM.
In the case of `Cc1nn(C2CCOCC2)c2sc(C(=O)N[C@H]3CC[C@H](N4CCN(C)C(=O)C4)CC3)cc12` [Example 419, 3-Methyl-N-[trans-4-(4-methyl-3-oxo-1-piperazinyl)cyclohexyl]-1-tetrahydro-2H-pyran-4-yl-1H-thieno[2,3-c]pyrazole-5-carboxamide], the figures for the IC50 in assay [1] and in assay [2] were 29 nM and 5700 nM, respectively.
For `Cc1nn(C2CCCCC2)c2sc(C(=O)Nc3ccc(CO)nc3)cc12` [Example 404, 1-Cyclohexyl-N-[6-(hydroxymethyl)-3-pyridinyl]-3-methyl-1H-thieno[2,3-c]pyrazole-5-carboxamide] the same measures were 32 nM and 3500 nM.
Taken in the same sequence, the figures for `CC(=O)n1ccc2cc(NC(=O)c3cc4c(C)nn(C5CCCCC5)c4s3)ccc21` [Example 60, N-(1-Acetyl-1H-indol-5-yl)-1-cyclohexyl-3-methyl-1H-thieno[2,3-c]pyrazole-5-carboxamide] were 65 nM and 6500 nM.
For `CC(=O)N(C)C1CCN([C@H]2CC[C@H](NC(=O)c3cc4c(C)nn(C5CCCCC5)c4s3)CC2)CC1` [Example 180, N-(trans-4-{4-[Acetyl(methyl)amino]-1-piperidinyl}cyclohexyl)-1-cyclohexyl-3-methyl-1H-thieno[2,3-c]pyrazole-5-carboxamide] the same measures were 10 nM and 1400 nM.
`Cc1nn(C2CCCCC2)c2sc(C(=O)Nc3ccc(N4CCNC(=O)C4)cc3)cc12` [Example 341, 1-Cyclohexyl-3-methyl-N-[4-(3-oxo-1-piperazinyl)phenyl]-1H-thieno[2,3-c]pyrazole-5-carboxamide]: the 50% inhibitory concentration (IC50) amounted to 5 nM in assay [1] and 1800 nM in assay [2].
For `Cc1nn(C2CCCCC2)c2sc(C(=O)Nc3ccc(CN4CCOCC4)cc3)cc12` [Example 199, 1-Cyclohexyl-3-methyl-N-[4-(4-morpholinylmethyl)phenyl]-1H-thieno[2,3-c]pyrazole-5-carboxamide fumarate], the IC50 in assay [1] was 56 nM; in assay [2], 5800 nM.
In the case of `Cc1nn(C2CCCCC2)c2sc(C(=O)Nc3ccc(C4CCN(C)CC4)cc3)cc12` [Example 142, 1-Cyclohexyl-3-methyl-N-[4(1-methyl-4-piperidinyl)phenyl]-1H-thieno[2,3-c]pyrazole-5-carboxamide], the IC50 in assay [1] came out at 14 nM; in assay [2], 2000 nM.
For `Cc1nn(C2CCCCC2)c2sc(C(=O)Nc3ccc(C(=O)NC(C)C)cc3)cc12` [Example 45, 1-Cyclohexyl-N-{4-[(isopropylamino)carbonyl]phenyl}-3-methyl-1H-thieno[2,3-c]pyrazole-5-carboxamide] the same measures were 50 nM and 12000 nM.
For `CCN1CCN([C@H]2CC[C@H](NC(=O)c3cc4c(C)nn(C5CCOCC5)c4s3)CC2)CC1=O` [Example 436, N-[trans-4-(4-Ethyl-3-oxo-1-piperazinyl)cyclohexyl]-3-methyl-1-tetrahydro-2H-pyran-4-yl-1H-thieno[2,3-c]pyrazole-5-carboxamide] the same measures were 30 nM and 7200 nM.
As for `COc1cc(NC(=O)c2cc3c(C)nn(C4CCCCCC4)c3s2)ccc1NC(C)=O` [Example 115, N-[4-(Acetylamino)-3-methoxyphenyl]-1-cycloheptyl-3-methyl-1H-thieno[2,3-c]pyrazole-5-carboxamide], the figures for the IC50 in assay [1] and in assay [2] were 40 nM and 1500 nM, respectively.
For `Cc1nn(C2CCCCC2)c2sc(C(=O)Nc3ccc(C4CCNCC4)cc3)cc12` [Example 141, 1-Cyclohexyl-3-methyl-N-[4-(4-piperidinyl)phenyl]-1H-thieno[2,3-c]pyrazole-5-carboxamide HCl salt] the same measures were 22 nM and 1600 nM.
Taken in the same sequence, the figures for `Cc1nn(C2CCCCC2)c2sc(C(=O)N[C@H]3CC[C@H](N4CCN(C)C4=O)CC3)cc12` [Example 280] were 17 nM and 1900 nM.
On to `Cc1nn(C2CCCCC2)c2sc(C(=O)Nc3ccc(N4CCC(O)CC4)c(C#N)c3)cc12` [Example 373, N-[3-Cyano-4-(4-hydroxy-1-piperidinyl)phenyl]-cyclohexyl-3-methyl-1H-thieno[2,3-c]pyrazole-5-carboxamide], for which the IC50 in assay [1] stood at 4.5 nM; in assay [2], 3400 nM.
For `Cc1nn(C2CCCCC2)c2sc(C(=O)Nc3ccc(N4CCC(O)CC4)nc3)cc12` [Example 370, 1-Cyclohexyl-N-[6-(4-hydroxy-1-piperidinyl)-3-pyridinyl]-3-methyl-1H-thieno[2,3-c]pyrazole-5-carboxamide] the same measures were 8.7 nM and 4100 nM.
For `Cc1nn(C2CCCCC2)c2sc(C(=O)N[C@H]3CC[C@H](C(=O)N(C)C)C3)cc12` [Example 230, 1-Cyclohexyl-N-{(1S,3S)-3-[(dimethylamino)carbonyl]cyclopentyl}-3-methyl-1H-thieno[2,3-c]pyrazole-5-carboxamide HCl salt] the same measures were 23 nM and 7000 nM.
Taken in the same sequence, the figures for `Cc1nn(C2CCCCC2)c2sc(C(=O)N[C@H]3CC[C@H](NC(=O)N(C)CC(=O)OCc4ccccc4)CC3)cc12` [Example 275, Benzyl [{[(trans-4-{[(1 cyclohexyl-3-methyl-1H-thieno[2,3-c]pyrazol-5-yl)carbonyl]amino}cyclohexyl)amino]carbonyl}(methyl)amino]acetate] were 4 nM and 1200 nM.
Turning to `Cc1nn(C2CCCCC2)c2sc(C(=O)N[C@H]3CC[C@H](CN4C(=O)CNC4=O)CC3)cc12` [Example 247, 1-Cyclohexyl-N-{4-[(2,5-dioxo-1-imidazolidinyl)methyl]cyclohexyl}-3-methyl-1H-thieno[2,3-c]pyrazole-5-carboxamide], the IC50 in assay [1] was 6.5 nM; in assay [2], 1400 nM.
Taken in the same sequence, the figures for `Cc1nn(C2CCOCC2)c2sc(C(=O)N[C@H]3CC[C@H](N4CCN(S(C)(=O)=O)CC4)CC3)cc12` [Example 396, 3-Methyl-N-{trans-4-[4-(methylsulfonyl)-1-piperazinyl]cyclohexyl}-1-tetrahydro-2H-pyran-4-yl-1H-thieno[2,3-c]pyrazole-5-carboxamide] were 22 nM and 900 nM.
Take `Cc1nn(C2CCOCC2)c2sc(C(=O)Nc3ccc(N4CCN(C)CC4)c(F)c3)cc12` [Example 197, N-[3-Fluoro-4-(4-methyl-piperazinyl)phenyl]-3-methyl-1-tetrahydro-2H-pyran-4-yl-1H-thieno[2,3-c]pyrazole-5-carboxamide]: the results for the IC50 in assay [1] and in assay [2] were 79 nM and 4400 nM, respectively.
Turning to `Cc1nn(C2CCCCC2)c2sc(C(=O)Nc3ccc(N4CCN(C)CC4)c(F)c3)cc12` [Example 155, 1-Cyclohexyl-N-[3-fluoro-4-(4-methyl-1-piperazinyl)phenyl]-3-methyl-1H-thieno[2,3-c]pyrazole-5-carboxamide methanesulfonic acid salt], the half-maximal inhibitory concentration (IC50) is 10 nM in assay [1] and 1500 nM in assay [2].

The term IC50 denotes the concentration that inhibits the measured activity by half.
